Assays:
MET = MET biochemical kinase assay; set-up: species or system human; concentration or dose not given beside the values
In short: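 In this format, tyrosine phosphorylation of plate-captured human MET is followed in vitro after compound addition in ATP/divalent-cation buffer, detected by anti-phosphotyrosine-HRP with TMB substrate.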

FLK-1 receptor = molecular target: T1, FLK-1 receptor (Mus musculus, UniProt P35918); test: FLK-1 ELISA (kinase activity of the FLK-1 receptor in FLK-1/NIH3T3 cells, VEGF stimulated); format: cell-based; set-up: concentration or dose not given beside the values
T1 construct: expressed in transfected cells; host or cells: NIH3T3 C7#3
T1 sequence (P35918 20-1345): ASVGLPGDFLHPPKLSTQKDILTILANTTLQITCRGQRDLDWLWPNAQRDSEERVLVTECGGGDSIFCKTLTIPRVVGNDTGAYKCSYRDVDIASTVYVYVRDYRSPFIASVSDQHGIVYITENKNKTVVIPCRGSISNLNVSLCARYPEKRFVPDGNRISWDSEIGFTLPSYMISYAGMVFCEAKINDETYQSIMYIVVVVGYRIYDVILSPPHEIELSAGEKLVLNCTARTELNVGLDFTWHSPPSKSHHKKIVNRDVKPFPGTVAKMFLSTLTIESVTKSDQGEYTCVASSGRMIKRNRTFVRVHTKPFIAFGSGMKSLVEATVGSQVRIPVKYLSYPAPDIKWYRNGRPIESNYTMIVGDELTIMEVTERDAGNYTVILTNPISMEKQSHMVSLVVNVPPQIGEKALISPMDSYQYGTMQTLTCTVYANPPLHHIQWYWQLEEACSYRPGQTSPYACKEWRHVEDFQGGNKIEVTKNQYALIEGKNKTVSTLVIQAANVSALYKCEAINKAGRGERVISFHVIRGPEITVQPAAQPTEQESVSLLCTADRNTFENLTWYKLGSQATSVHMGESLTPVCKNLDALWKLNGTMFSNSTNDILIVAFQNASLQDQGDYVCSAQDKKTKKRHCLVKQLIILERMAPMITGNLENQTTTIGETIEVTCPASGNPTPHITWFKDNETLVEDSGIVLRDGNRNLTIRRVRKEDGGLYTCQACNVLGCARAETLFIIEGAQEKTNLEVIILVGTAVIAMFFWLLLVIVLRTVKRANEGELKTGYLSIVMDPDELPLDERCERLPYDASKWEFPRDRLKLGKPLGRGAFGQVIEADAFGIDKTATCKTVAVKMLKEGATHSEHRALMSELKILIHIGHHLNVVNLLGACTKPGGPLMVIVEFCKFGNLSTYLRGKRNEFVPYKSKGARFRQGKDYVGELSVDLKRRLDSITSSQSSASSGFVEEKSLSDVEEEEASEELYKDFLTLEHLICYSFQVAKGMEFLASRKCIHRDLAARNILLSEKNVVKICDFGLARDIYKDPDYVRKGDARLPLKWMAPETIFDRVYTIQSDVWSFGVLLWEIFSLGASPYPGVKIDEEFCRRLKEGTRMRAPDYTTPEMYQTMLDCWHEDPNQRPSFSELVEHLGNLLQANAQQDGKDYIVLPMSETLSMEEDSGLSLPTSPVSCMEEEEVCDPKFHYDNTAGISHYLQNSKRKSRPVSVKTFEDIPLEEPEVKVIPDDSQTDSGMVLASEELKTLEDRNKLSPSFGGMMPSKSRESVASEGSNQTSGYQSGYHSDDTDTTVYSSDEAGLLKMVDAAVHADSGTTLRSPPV
In short: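 NIH3T3 C7#3 cells expressing FLK-1 were seeded at 25.000 cells/well, serum-starved overnight in 0.1% FBS, then treated with compound for two hours at 37°C (final DMSO 0.5%) before VEGF stimulation. Receptor was captured on anti-rabbit IgG-coated ELISA plates bearing affinity-purified anti-FLK-1 antiserum.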

PDGF-R = PDGF-R (Homo sapiens, UniProt P09619); test: PDGF-R ELISA; format: cell-based
Sequence of PDGF-R (P09619 33-1106, species assumed): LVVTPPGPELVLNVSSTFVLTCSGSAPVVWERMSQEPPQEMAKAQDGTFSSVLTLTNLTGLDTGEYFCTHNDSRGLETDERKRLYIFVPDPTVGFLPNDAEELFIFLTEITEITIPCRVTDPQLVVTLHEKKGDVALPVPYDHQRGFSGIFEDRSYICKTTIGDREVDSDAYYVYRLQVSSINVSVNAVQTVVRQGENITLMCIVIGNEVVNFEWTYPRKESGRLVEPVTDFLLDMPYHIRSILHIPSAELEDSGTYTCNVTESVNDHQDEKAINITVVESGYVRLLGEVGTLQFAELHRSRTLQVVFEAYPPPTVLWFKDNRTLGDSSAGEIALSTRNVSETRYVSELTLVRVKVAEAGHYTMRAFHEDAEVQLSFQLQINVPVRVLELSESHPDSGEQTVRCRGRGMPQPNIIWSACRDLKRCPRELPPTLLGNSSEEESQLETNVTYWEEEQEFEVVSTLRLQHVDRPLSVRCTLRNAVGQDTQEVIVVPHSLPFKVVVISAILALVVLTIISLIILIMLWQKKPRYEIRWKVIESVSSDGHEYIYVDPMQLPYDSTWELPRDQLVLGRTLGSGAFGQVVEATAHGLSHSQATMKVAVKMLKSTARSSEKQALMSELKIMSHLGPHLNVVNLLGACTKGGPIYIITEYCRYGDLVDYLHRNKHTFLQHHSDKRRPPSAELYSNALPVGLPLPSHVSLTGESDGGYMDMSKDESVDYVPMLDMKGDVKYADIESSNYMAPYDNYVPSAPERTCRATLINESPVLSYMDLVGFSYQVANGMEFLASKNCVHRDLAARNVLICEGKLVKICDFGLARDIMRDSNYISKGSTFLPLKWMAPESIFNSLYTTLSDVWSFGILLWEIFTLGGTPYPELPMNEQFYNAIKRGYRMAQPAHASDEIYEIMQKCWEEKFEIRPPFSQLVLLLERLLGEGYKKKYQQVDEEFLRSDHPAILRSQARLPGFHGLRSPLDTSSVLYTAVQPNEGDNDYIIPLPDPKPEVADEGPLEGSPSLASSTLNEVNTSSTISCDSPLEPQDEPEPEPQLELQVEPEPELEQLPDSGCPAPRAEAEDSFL
Excerpt: A PDGF-R ELISA is described in International Patent Publication No. WO 96/40116, published December 19, 1996 by Tang et al.

Row | Compound | Met Kinase % Inhibition (MET) | Fik Kinase %Inhibition (FLK-1 receptor) | PDGF Kinase %Inhibition (PDGF-R)
1 | O=C1Nc2c(Br)cc(Br)cc2C1=Cc1coc2ccc([N+](=O)[O-])cc2c1=O [10731/A07] | 49.5% | -4.3% | 4.6%
2 | Cc1c(Br)ccc2c1C(=Cc1ccc(Cl)c([N+](=O)[O-])c1)C(=O)N2 [10718/C08] | 22.7% | 19.6% | –
3 | O=C1Nc2ccc(CCCl)cc2C1=Cc1cc2ccccc2nc1Cl [10730/G08] | 16.6% | 23.3% | 20.3%
4 | CCn1c2ccccc2c2cc(C=C3C(=O)Nc4c(Br)cc(Br)cc43)ccc21 [10731/A02] | 23.9% | 2.7% | -3.9%
5 | CC(C)c1ccc2occ(C=C3C(=O)Nc4ccc(I)cc43)c(=O)c2c1 [10731/B05] | 86.0% | 3.8% | 17.9%
6 | Cc1c(Br)ccc2c1C(=C1C(=O)N(C)c3ccccc31)C(=O)N2 [10731/C10] | 23.3% | 19.7% | 6.5%
7 | COC(=O)c1[nH]c(C)c(C=C2C(=O)Nc3ccc(Br)c(C)c32)c1C(=O)OC [10718/C07] | 29.6% | 6.3% | –
8 | O=C1Nc2ccc(I)cc2C1=Cc1coc2ccc([N+](=O)[O-])cc2c1=O [10731/B07] | 41.6% | 11.7% | 6.0%
9 | Cc1c(Br)ccc2c1C(=Cc1coc3ccc([N+](=O)[O-])cc3c1=O)C(=O)N2 [10731/C07] | -11.6% | 70.4% | 31.3%
10 | CC(C)c1ccc2occ(C=C3C(=O)Nc4c(Br)cc(Br)cc43)c(=O)c2c1 [10731/A05] | 85.8% | -6.5% | 14.1%
11 | CNS(=O)(=O)c1ccc2c(c1)C(=Cc1coc3cc(C)c(C)cc3c1=O)C(=O)N2 [10731/D03] | 40.2% | 17.3% | 28.4%
12 | C=C(C)C1CC=C(C=C2C(=O)Nc3c(Br)cc(Br)cc32)CC1 (stereo not drawn) [10731/A04] | 43.6% | 5.0% | 5.1%
13 | CCn1c2ccccc2c2cc(C=C3C(=O)Nc4ccc(S(=O)(=O)NC)cc43)ccc21 [10731/D02] | 8.7% | -8.4% | 17.9%
14 | CN1C(=O)C(=C2C(=O)Nc3c(Br)cc(Br)cc32)c2ccccc21 [10731/A10] | 41.2% | -5.3% | -3.5%
15 | O=C1Nc2ccc(CCCl)cc2C1=Cc1ccc(-c2ccccc2Cl)o1 [10730/G07] | 26.2% | 8.3% | 19.9%
16 | CCn1c2ccccc2c2cc(C=C3C(=O)Nc4ccc(Br)c(C)c43)ccc21 [10731/C02] | 11.1% | 3.1% | -2.5%
17 | COc1ccc2[nH]cc(C=C3C(=O)Nc4ccc(Br)c(C)c43)c2c1 [10731/C09] | 22.7% | 15.1% | -6.3%
18 | COc1cc(OC)c(OC)cc1C=C1C(=O)Nc2ccc(CCCl)cc21 [10730/G03] | 43.2% | 15.2% | 44.0%
19 | CCOC(=O)CCc1c(C(=O)OCC)[nH]c(C=C2C(=O)Nc3ccc(Br)c(C)c32)c1CC(=O)OCC [10718/C05] | 8.7% | 20.5% | –
20 | Cc1ccc2occ(C=C3C(=O)Nc4ccc(I)cc43)c(=O)c2c1 [10731/B06] | 56.2% | 6.2% | 5.6%
21 | CCn1c2ccccc2c2cc(C=C3C(=O)Nc4ccc(I)cc43)ccc21 [10731/B02] | 71.6% | 6.5% | 13.2%
22 | C=C(C)C1CC=C(C=C2C(=O)Nc3ccc(I)cc32)CC1 (stereo not drawn) [10731/B04] | 71.0% | 12.0% | 0.3%
23 | CCOC(=O)c1cc(C=C2C(=O)Nc3ccc(Br)c(C)c32)oc1C [10718/C06] | 3.9% | 16.8% | –

Row | Compound | Met Kinase % Inhibition (MET) | Fik Kinase %Inhibition (FLK-1 receptor) | PDGF Kinase %Inhibition (PDGF-R)
24 | COc1ccc(C=C2C(=O)Nc3ccc(CCCl)cc32)c(OC)c1OC [10730/G02] | 41.1% | 23.3% | 18.1%
25 | O=C1Nc2c(Br)cc(Br)cc2C1=Cc1ccc[nH]1 [10717/A09] | 9.4% | -3.9% | –
26 | COc1ccc2[nH]cc(C=C3C(=O)Nc4c(Br)cc(Br)cc43)c2c1 [10731/A09] | 46.7% | -2.7% | -14.4%
27 | Cc1cc2occ(C=C3C(=O)Nc4ccc(Br)c(C)c43)c(=O)c2cc1C [10731/C03] | 38.7% | 4.5% | 11.3%
28 | Cc1cc2occ(C=C3C(=O)Nc4ccc(I)cc43)c(=O)c2cc1C [10731/B03] | 60.9% | 1.9% | 9.9%
29 | COC1CC(C=C2C(=O)Nc3ccc(S(=O)(=O)N4CCOCC4)cc32)C(OC)O1 (stereo not drawn) [10730/F10] | 42.1% | 13.4% | 1.9%
30 | COc1ccc2[nH]cc(C=C3C(=O)Nc4ccc(I)cc43)c2c1 [10731/B09] | 29.6% | -0.5% | 0.3%
31 | O=C1Nc2ccc(S(=O)(=O)N3CCOCC3)cc2C1=Cc1coc2c(Br)cc(Br)cc2c1=O [10730/F09] | 71.1% | 14.4% | 13.3%
32 | Cc1ccc2occ(C=C3C(=O)Nc4c(Br)cc(Br)cc43)c(=O)c2c1 [10731/A06] | 53.0% | -5.5% | 1.3%
33 | Cc1cc(C=C2C(=O)Nc3ccc(CCCl)cc32)oc1C [10730/G11] | 46.1% | -1.4% | -0.3%
34 | O=C1Nc2ccc(I)cc2C1=Cc1c[nH]c(=O)[nH]c1=O [10731/B08] | 57.4% | 6.2% | -23.4%
35 | Cc1cc(C=C2C(=O)Nc3ccc(S(=O)(=O)N4CCOCC4)cc32)oc1C [10730/F11] | 53.6% | -1.3% | 4.5%
36 | Cc1ccc2occ(C=C3C(=O)Nc4ccc(Br)c(C)c43)c(=O)c2c1 [10731/C06] | 18.2% | 13.8% | 7.0%
37 | COc1cc(C=C2C(=O)Nc3ccc(CCCl)cc32)cc(OC)c1OC [10730/G04] | 47.7% | 7.4% | 21.6%
38 | Cc1c(O)ccc(C=C2C(=O)Nc3ccc(Br)c(C)c32)c1O [10718/C09] | 38.2% | 5.3% | –
39 | Cc1cc2occ(C=C3C(=O)Nc4c(Br)cc(Br)cc43)c(=O)c2cc1C [10731/A03] | 54.8% | 2.5% | 7.5%
40 | CN1C(=O)C(=C2C(=O)Nc3ccc(I)cc32)c2ccccc21 [10731/B10] | 72.9% | 1.3% | 4.6%
41 | COC1CC(C=C2C(=O)Nc3ccc(CCCl)cc32)C(OC)O1 (stereo not drawn) [10730/G10] | 42.1% | 11.3% | 22.1%
42 | C=C(C)C1CC=C(C=C2C(=O)Nc3ccc(Br)c(C)c32)CC1 (stereo not drawn) [10731/C04] | 32.5% | 10.5% | 15.1%
43 | O=C1Nc2c(Br)cc(Br)cc2C1=Cc1c[nH]c(=O)[nH]c1=O [10731/A08] | 59.9% | -13.8% | -2.5%
44 | Cc1c(Br)ccc2c1C(=Cc1coc3ccc(C(C)C)cc3c1=O)C(=O)N2 [10731/C05] | 78.3% | 14.9% | 22.7%
45 | Cc1c(Br)ccc2c1C(=Cc1c[nH]c(=O)[nH]c1=O)C(=O)N2 [10731/C08] | 25.8% | 10.2% | -3.0%
46 | CC(=O)n1cc(C=C2C(=O)Nc3ccc(CCCl)cc32)c2ccccc21 [10730/G05] | 35.8% | 22.3% | 65.0%

Reference: patent EP1247803A2, “Indolinone compounds suitable for modulation of protein kinases” (Sugen, Inc., priority 1996, dated 1998)
